Reference: article PMC9340768 (Journal of Medicinal Chemistry, 2022)
Starred links: 1 amine or outer side, 2 acyl side, 3 side chain; linkers in the order of their positions; H or OH if unused. Positions of bridges follow the written chain, without caps; N, C: chain ends. Non-standard residues stand in square brackets, D forms with d. Residues, ends and D or L forms follow the SMILES beside them. Chains are numbered I, II in the order given. TATA = O=C(CC[*:1])N1CN(C(=O)CC[*:2])CN(C(=O)CC[*:3])C1; X1 = O=C(CCc1cn(CCOCCOCCOCCOCCOCCC(=O)[*:2])nn1)[*:1]; 1Nal = N[C@@H](Cc1cccc2ccccc12)C(=O)O; Hyp = O=C(O)[C@@H]1C[C@@H](O)CN1; hArg = N=C(N)NCCCC[C@H](N)C(=O)O; tBuAla = CC(C)(C)C[C@H](N)C(=O)O; Nle = CCCC[C@H](N)C(=O)O

Key:
[1] = Pharmacokinetics in Sprague-Dawley rats; details: rat, in vivo, iv, 2 mg/kg
CD137 = CD137 (Homo sapiens, UniProt Q07011+Q96NY8); assay: HT1376/CD137 reporter coculture assay; type: cell-based
Sequence of CD137 (Q07011 24-255): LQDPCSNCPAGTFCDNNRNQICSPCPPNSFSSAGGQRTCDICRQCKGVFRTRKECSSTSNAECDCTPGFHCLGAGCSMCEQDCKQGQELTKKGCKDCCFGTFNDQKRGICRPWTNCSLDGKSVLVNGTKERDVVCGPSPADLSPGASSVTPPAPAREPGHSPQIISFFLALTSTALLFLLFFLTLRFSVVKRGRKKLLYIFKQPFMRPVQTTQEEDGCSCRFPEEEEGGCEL
Sequence of CD137 (Q96NY8 32-510): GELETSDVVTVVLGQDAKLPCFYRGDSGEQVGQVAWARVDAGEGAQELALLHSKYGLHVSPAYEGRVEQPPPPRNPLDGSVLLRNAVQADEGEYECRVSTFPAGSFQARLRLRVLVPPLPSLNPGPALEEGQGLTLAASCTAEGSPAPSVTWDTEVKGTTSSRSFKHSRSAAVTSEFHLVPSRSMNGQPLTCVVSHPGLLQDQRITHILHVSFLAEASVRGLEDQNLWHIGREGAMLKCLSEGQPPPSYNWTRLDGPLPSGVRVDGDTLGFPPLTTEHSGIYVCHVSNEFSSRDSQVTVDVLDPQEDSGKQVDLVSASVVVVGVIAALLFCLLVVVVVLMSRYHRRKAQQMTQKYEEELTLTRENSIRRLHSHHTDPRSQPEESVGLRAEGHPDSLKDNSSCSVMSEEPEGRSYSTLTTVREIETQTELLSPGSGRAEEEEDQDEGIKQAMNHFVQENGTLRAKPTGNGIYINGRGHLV

[2] = 1:2 (BCY10918) vs 1:1 (BCY10572)

CCCC[C@@H]1NC(=O)[C@H](Cc2ccc(O)cc2)NC(=O)[C@@H]2CCCN2C(=O)[C@H](CC(=O)O)NC(=O)[C@H](C)NC(=O)[C@H](Cc2ccccc2)NC(=O)[C@@H]2CSCCC(=O)N3CN(CN(C3)C(=O)CCSC[C@H](NC(C)=O)C(=O)N[C@@H](CC(C)(C)C)C(=O)N[C@@H](CCC(=O)O)C(=O)N[C@@H](CCC(=O)O)C(=O)N[C@H](CCCCNC(=O)CCc3cn(CCOCCOCCOCCOCCOCCC(=O)N[C@H]4CSCCC(=O)N5CN6CN(C5)C(=O)CCSC[C@H](NC(=O)[C@@H](CC(=O)O)NC(=O)[C@H](Cc5cccc7ccccc57)NC(=O)[C@@H]5CCCN5C4=O)C(=O)N[C@@H](CCSC)C(=O)N[C@@H](CCCCNC(=N)N)C(=O)N[C@@H](CC(=O)O)C(=O)N[C@@H](Cc4c[nH]c5ccccc45)C(=O)N[C@@H](CO)C(=O)N[C@@H]([C@@H](C)O)C(=O)N4CCC[C@H]4C(=O)N4C[C@H](O)C[C@H]4C(=O)N[C@@H](Cc4c[nH]c5ccccc45)C(=O)N[C@H](C(N)=O)CSCCC6=O)nn3)C(=O)N3CCC[C@H]3C(=O)N[C@@H](Cc3ccc(O)cc3)C(=O)N2)C(=O)CCSC[C@@H](C(N)=O)NC1=O [BCY12377]
clearance ([1]; CL (mL/min/kg), SD rats, 2 mg/kg IV bolus): 7.8 mL/min/kg

CCCC[C@@H]1NC(=O)[C@H](Cc2ccc(O)cc2)NC(=O)[C@@H]2CCCN2C(=O)[C@H](CC(=O)O)NC(=O)[C@H](C)NC(=O)[C@H](Cc2ccccc2)NC(=O)[C@@H]2CSCCC(=O)N3CN(CN(C3)C(=O)CCSC[C@@H](C(=O)N[C@@H](C)C(N)=O)NC1=O)C(=O)CCSC[C@H](NC(C)=O)C(=O)N[C@@H](CC(C)(C)C)C(=O)N1CCC[C@H]1C(=O)N[C@@H](CCC(=O)O)C(=O)N[C@H](CCCCNC(=O)CCc1cn(CCOCCOCCOCCN(CCOCCOCCOCCn3cc(CCC(=O)NCCCC[C@H]4NC(=O)[C@H](CCC(=O)O)NC(=O)[C@@H]5CCCN5C(=O)[C@H](CC(C)(C)C)NC(=O)[C@@H](NC(C)=O)CSCCC(=O)N5CN6CN(C5)C(=O)CCSC[C@H](NC(=O)[C@H](Cc5ccc(O)cc5)NC(=O)[C@@H]5CCCN5C4=O)C(=O)N[C@@H](Cc4ccccc4)C(=O)N[C@@H](C)C(=O)N[C@@H](CC(=O)O)C(=O)N4CCC[C@H]4C(=O)N[C@@H](Cc4ccc(O)cc4)C(=O)N[C@@H](CCCC)C(=O)N[C@H](C(=O)N[C@@H](C)C(N)=O)CSCCC6=O)nn3)CCOCCOCCOCC(=O)NCCCNC(=O)Cn3cc(CCC(=O)NCCCNC(=O)COCCOCCOCCN(CCOCCOCCOCCn4cc(CCC(=O)NCCC(=O)N[C@H]5CSCCC(=O)N6CN7CN(C6)C(=O)CCSC[C@H](NC(=O)[C@@H](CC(=O)O)NC(=O)[C@H](Cc6cccc8ccccc68)NC(=O)[C@@H]6CCCN6C5=O)C(=O)N[C@@H](CCSC)C(=O)N[C@@H](CCCCNC(=N)N)C(=O)N[C@@H](CC(=O)O)C(=O)N[C@@H](Cc5c[nH]c6ccccc56)C(=O)N[C@@H](CO)C(=O)N[C@@H]([C@@H](C)O)C(=O)N5CCC[C@H]5C(=O)N5C[C@H](O)C[C@H]5C(=O)N[C@@H](Cc5c[nH]c6ccccc56)C(=O)N[C@H](C(N)=O)CSCCC7=O)nn4)CCOCCOCCOCCn4cc(CCC(=O)NCCC(=O)N[C@H]5CSCCC(=O)N6CN7CN(C6)C(=O)CCSC[C@H](NC(=O)[C@@H](CC(=O)O)NC(=O)[C@H](Cc6cccc8ccccc68)NC(=O)[C@@H]6CCCN6C5=O)C(=O)N[C@@H](CCSC)C(=O)N[C@@H](CCCCNC(=N)N)C(=O)N[C@@H](CC(=O)O)C(=O)N[C@@H](Cc5c[nH]c6ccccc56)C(=O)N[C@@H](CO)C(=O)N[C@@H]([C@@H](C)O)C(=O)N5CCC[C@H]5C(=O)N5C[C@H](O)C[C@H]5C(=O)N[C@@H](Cc5c[nH]c6ccccc56)C(=O)N[C@H](C(N)=O)CSCCC7=O)nn4)nn3)nn1)C(=O)N1CCC[C@H]1C(=O)N[C@@H](Cc1ccc(O)cc1)C(=O)N2 [BCY12970]
fold more potent than the 1:2 format (CD137; 2:2 molecule vs 1:2 format): 2.9 fold

CCCC[C@@H]1NC(=O)[C@H](Cc2ccc(O)cc2)NC(=O)[C@@H]2CCCN2C(=O)[C@H](CC(=O)O)NC(=O)[C@H](C)NC(=O)[C@H](Cc2ccccc2)NC(=O)[C@@H]2CSCCC(=O)N3CN(CN(C3)C(=O)CCSC[C@@H](C(=O)N[C@@H](C)C(N)=O)NC1=O)C(=O)CCSC[C@H](NC(C)=O)C(=O)N[C@@H](CC(C)(C)C)C(=O)N1CCC[C@H]1C(=O)N[C@@H](CCC(=O)O)C(=O)N[C@H](CCCCNC(=O)CCc1cn(CCOCCOCCOCCOCCOCCOCCOCCOCCOCCOCCNC(=O)CCOCCN(CCOCCC(=O)NCCOCCOCCOCCOCCOCCOCCOCCOCCOCCOCCn3cc(CCC(=O)NCCCC[C@H]4NC(=O)[C@H](CCC(=O)O)NC(=O)[C@@H]5CCCN5C(=O)[C@H](CC(C)(C)C)NC(=O)[C@@H](NC(C)=O)CSCCC(=O)N5CN6CN(C5)C(=O)CCSC[C@H](NC(=O)[C@H](Cc5ccc(O)cc5)NC(=O)[C@@H]5CCCN5C4=O)C(=O)N[C@@H](Cc4ccccc4)C(=O)N[C@@H](C)C(=O)N[C@@H](CC(=O)O)C(=O)N4CCC[C@H]4C(=O)N[C@@H](Cc4ccc(O)cc4)C(=O)N[C@@H](CCCC)C(=O)N[C@H](C(=O)N[C@@H](C)C(N)=O)CSCCC6=O)nn3)CCOCCC(=O)NCCOCCOCCOCCOCCOCCOCCOCCOCCOCCOCCn3cc(CCC(=O)N[C@H]4CSCCC(=O)N5CN6CN(C5)C(=O)CCSC[C@H](NC(=O)[C@@H](CC(=O)O)NC(=O)[C@H](Cc5cccc7ccccc57)NC(=O)[C@@H]5CCCN5C4=O)C(=O)N[C@@H](CCSC)C(=O)N[C@@H](CCCCNC(=N)N)C(=O)N[C@@H](CC(=O)O)C(=O)N[C@@H](Cc4c[nH]c5ccccc45)C(=O)N[C@@H](CO)C(=O)N[C@@H]([C@@H](C)O)C(=O)N4CCC[C@H]4C(=O)N4C[C@H](O)C[C@H]4C(=O)N[C@@H](Cc4c[nH]c5ccccc45)C(=O)N[C@H](C(N)=O)CSCCC6=O)nn3)nn1)C(=O)N1CCC[C@H]1C(=O)N[C@@H](Cc1ccc(O)cc1)C(=O)N2 [BCY11027]
half-life [1]: 0.59 h

CCCC[C@@H]1NC(=O)[C@H](Cc2ccc(O)cc2)NC(=O)[C@@H]2CCCN2C(=O)[C@H](CC(=O)O)NC(=O)[C@H](C)NC(=O)[C@H](Cc2ccccc2)NC(=O)[C@@H]2CSCCC(=O)N3CN(CN(C3)C(=O)CCSC[C@@H](C(=O)N[C@@H](C)C(N)=O)NC1=O)C(=O)CCSC[C@H](NC(C)=O)C(=O)N[C@@H](CC(C)(C)C)C(=O)N1CCC[C@H]1C(=O)N[C@@H](CCC(=O)O)C(=O)N[C@H](CCCCNC(=O)CCc1cn(CCOCCOCCOCCOCCOCCOCCOCCOCCOCCOCCNC(=O)c3cc(C(=O)NCCOCCOCCOCCOCCOCCOCCOCCOCCOCCOCCn4cc(CCC(=O)NCCCC[C@H]5NC(=O)[C@H](CCC(=O)O)NC(=O)[C@@H]6CCCN6C(=O)[C@H](CC(C)(C)C)NC(=O)[C@@H](NC(C)=O)CSCCC(=O)N6CN7CN(C6)C(=O)CCSC[C@H](NC(=O)[C@H](Cc6ccc(O)cc6)NC(=O)[C@@H]6CCCN6C5=O)C(=O)N[C@@H](Cc5ccccc5)C(=O)N[C@@H](C)C(=O)N[C@@H](CC(=O)O)C(=O)N5CCC[C@H]5C(=O)N[C@@H](Cc5ccc(O)cc5)C(=O)N[C@@H](CCCC)C(=O)N[C@H](C(=O)N[C@@H](C)C(N)=O)CSCCC7=O)nn4)cc(C(=O)NCCOCCOCCOCCOCCOCCOCCOCCOCCOCCOCCn4cc(CCC(=O)N[C@H]5CSCCC(=O)N6CN7CN(C6)C(=O)CCSC[C@H](NC(=O)[C@@H](CC(=O)O)NC(=O)[C@H](Cc6cccc8ccccc68)NC(=O)[C@@H]6CCCN6C5=O)C(=O)N[C@@H](CCSC)C(=O)N[C@@H](CCCCNC(=N)N)C(=O)N[C@@H](CC(=O)O)C(=O)N[C@@H](Cc5c[nH]c6ccccc56)C(=O)N[C@@H](CO)C(=O)N[C@@H]([C@@H](C)O)C(=O)N5CCC[C@H]5C(=O)N5C[C@H](O)C[C@H]5C(=O)N[C@@H](Cc5c[nH]c6ccccc56)C(=O)N[C@H](C(N)=O)CSCCC7=O)nn4)c3)nn1)C(=O)N1CCC[C@H]1C(=O)N[C@@H](Cc1ccc(O)cc1)C(=O)N2 [BCY10918]
half-life [1]: 1.8 h
improvement in EC50 (CD137; [2]): 8.3 fold
improvement in Emax (CD137; [2]): 2.0 fold

CCCC[C@@H]1NC(=O)[C@H](Cc2ccc(O)cc2)NC(=O)[C@@H]2CCCN2C(=O)[C@H](CC(=O)O)NC(=O)[C@H](C)NC(=O)[C@H](Cc2ccccc2)NC(=O)[C@@H]2CSCCC(=O)N3CN(CN(C3)C(=O)CCSC[C@@H](C(=O)N[C@@H](C)C(N)=O)NC1=O)C(=O)CCSC[C@H](NC(C)=O)C(=O)N[C@@H](CC(C)(C)C)C(=O)N1CCC[C@H]1C(=O)N[C@@H](CCC(=O)O)C(=O)N[C@H](CCCCNC(=O)CCc1cn(CCOCCOCCOCCOCCOCCC(=O)NCCCC[C@H]3NC(=O)[C@H](Cc4cccc5ccccc45)NC(=O)[C@@H]4CCCN4C(=O)[C@@H](NC(C)=O)CSCCC(=O)N4CN5CN(C4)C(=O)CCSC[C@H](NC3=O)C(=O)N[C@@H](CCSC)C(=O)N[C@@H](CCCCNC(=N)N)C(=O)N[C@@H](Cc3c[nH]cn3)C(=O)N[C@@H](Cc3c[nH]c4ccccc34)C(=O)N[C@@H](CO)C(=O)N[C@@H]([C@@H](C)O)C(=O)N3CCC[C@H]3C(=O)N3C[C@H](O)C[C@H]3C(=O)N[C@@H](Cc3c[nH]c4ccccc34)C(=O)N[C@H](C(N)=O)CSCCC5=O)nn1)C(=O)N1CCC[C@H]1C(=O)N[C@@H](Cc1ccc(O)cc1)C(=O)N2 [BCY12579] (I: Ac-C[tBuAla]PE[dK]PYCFADPY[Nle]CA-NH2 / II: Ac-CP[1Nal][dK]CM[hArg]HWSTP[Hyp]WC-NH2; linker I:1-I:8-I:15, II:1-II:5-II:15 via TATA; linker I:5-II:4 via X1)
improvement of EC50 (CD137; Nectin-4 affinity improved from BCY11858 to BCY12579): 12 fold
